In ChEMBL document CHEMBL1201862, “PubChem BioAssay data set” (2004):
Activity calls are given as the source filed them.

Experiments:
[1] = molecular target: Low molecular weight phosphotyrosine protein phosphatase (Homo sapiens, UniProt P24666); format: functional; conditions: read-out: IC50_Mean;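 also: Dose-response confirmation assay measuring inhibition of LMPTP enzyme activity by fluorescence intensity read-out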
[2] = molecular target: Beta Lactamase (Pseudomonas aeruginosa, UniProt Q932Y6); test: beta-lactamase reporter inhibitor potency, dose response, artefact control for NOD2-RIPK2 interaction inhibitor project, BLA reporter cells, FRET fluorescence (AID 651552); format: functional, cell-based
[3] = Fluorescence-based cell-based high throughput dose response assay for inhibitors of the interaction of nucleotide-binding oligomerization domain containing 2 (NOD2) and the receptor-interacting serine-threonine kinase 2 (RIPK2).; format: functional; conditions: Homo sapiens
[4] = molecular target: Hepatocyte nuclear factor 4-alpha (Homo sapiens, UniProt P41235); format: functional, cell-based;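 also: biochemical luminescence-based dose-response counterscreen measuring inhibition of HNF4 dimerization, run alongside a screen for blockers of ABHD5–perilipin-5 interaction; split luciferase complementation of HNF4 fusion proteins in cell lysate measuring dimerization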
[5] = molecular target: T1, ATP-dependent translocase ABCB1 (Homo sapiens, UniProt P08183); test: ABCG2 efflux pump inhibitor potency, dose response, Ig-MXP3 cells, JC-1, flow cytometry, set 2 (AID 504566); format: functional; conditions: read-out: EC50_MICROM_;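 also: flow cytometry median green fluorescence of retained JC-1 dye; potency of efflux pump inhibition measured as rising substrate retention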
[6] = molecular target: T1, ATP-dependent translocase ABCB1; test: ABCB1 efflux inhibitor potency, dose response, Jurkat-DNR cells, JC-1, flow cytometry, set 2 (AID 504569); format: functional; conditions: read-out: EC50_MICROM_;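 also: potency of pump inhibitors that raise cellular JC-1 green fluorescence up to the nicardipine level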
[7] = NIH/3T3 fibroblast cytotoxicity, dose response, cytotoxicity control for T. cruzi growth inhibitor project, cell-based, cherry-pick samples, set 2 (AID 651817); format: functional; conditions: NIH3T3
[8] = molecular target: Beta-lactamase (Pseudomonas aeruginosa, UniProt Q79MP6);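 also: biochemical dose-response test of metallo-beta-lactamase enzyme inhibition, read out by epi-absorbance; purified recombinant IMP-1 metallo-beta-lactamase with nitrocefin as substrate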
[9] = molecular target: T2, Alkaline phosphatase, tissue-nonspecific isozyme (Homo sapiens, UniProt P05186)
T2 sequence (P05186 whole entry): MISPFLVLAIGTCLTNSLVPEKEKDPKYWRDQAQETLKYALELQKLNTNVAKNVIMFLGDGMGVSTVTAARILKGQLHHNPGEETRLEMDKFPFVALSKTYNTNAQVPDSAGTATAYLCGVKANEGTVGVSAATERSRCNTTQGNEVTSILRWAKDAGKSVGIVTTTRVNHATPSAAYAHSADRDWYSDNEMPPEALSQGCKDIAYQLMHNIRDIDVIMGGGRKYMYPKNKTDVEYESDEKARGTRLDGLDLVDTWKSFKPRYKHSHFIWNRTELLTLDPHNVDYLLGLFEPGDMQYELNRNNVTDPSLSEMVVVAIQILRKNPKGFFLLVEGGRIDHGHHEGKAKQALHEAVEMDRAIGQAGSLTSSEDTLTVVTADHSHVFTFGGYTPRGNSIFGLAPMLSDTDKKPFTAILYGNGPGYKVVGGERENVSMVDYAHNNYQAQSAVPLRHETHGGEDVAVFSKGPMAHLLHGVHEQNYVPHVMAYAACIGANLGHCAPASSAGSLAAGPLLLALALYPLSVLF

[10] = molecular target: Beta-lactamase (Salmonella choleraesuis (strain SC-B67), UniProt Q5J463)
[11] = molecular target: T1, ATP-dependent translocase ABCB1; test: ABCB1 efflux pump inhibitor potency, dose response, Jurkat-DNR cells, JC-1, flow cytometry (AID 1689); format: functional
[12] = molecular target: T3, Interleukin-8 (Homo sapiens, UniProt P10145); test: Dose Response confirmation of uHTS small molecule hits for cystic fibrosis induced NFkb Inhibitors in a TNFa-induced IL8 counterscreen.; format: functional; conditions: read-out: IC50_Mean
[13] = molecular target: T3, Interleukin-8; test: Dose Response confirmation of uHTS small molecule hits for cystic fibrosis induced NFkb Inhibitors in a PAF-induced IL8 counterscreen.; format: functional; conditions: read-out: IC50_Mean

T1 sequence (P08183 whole entry): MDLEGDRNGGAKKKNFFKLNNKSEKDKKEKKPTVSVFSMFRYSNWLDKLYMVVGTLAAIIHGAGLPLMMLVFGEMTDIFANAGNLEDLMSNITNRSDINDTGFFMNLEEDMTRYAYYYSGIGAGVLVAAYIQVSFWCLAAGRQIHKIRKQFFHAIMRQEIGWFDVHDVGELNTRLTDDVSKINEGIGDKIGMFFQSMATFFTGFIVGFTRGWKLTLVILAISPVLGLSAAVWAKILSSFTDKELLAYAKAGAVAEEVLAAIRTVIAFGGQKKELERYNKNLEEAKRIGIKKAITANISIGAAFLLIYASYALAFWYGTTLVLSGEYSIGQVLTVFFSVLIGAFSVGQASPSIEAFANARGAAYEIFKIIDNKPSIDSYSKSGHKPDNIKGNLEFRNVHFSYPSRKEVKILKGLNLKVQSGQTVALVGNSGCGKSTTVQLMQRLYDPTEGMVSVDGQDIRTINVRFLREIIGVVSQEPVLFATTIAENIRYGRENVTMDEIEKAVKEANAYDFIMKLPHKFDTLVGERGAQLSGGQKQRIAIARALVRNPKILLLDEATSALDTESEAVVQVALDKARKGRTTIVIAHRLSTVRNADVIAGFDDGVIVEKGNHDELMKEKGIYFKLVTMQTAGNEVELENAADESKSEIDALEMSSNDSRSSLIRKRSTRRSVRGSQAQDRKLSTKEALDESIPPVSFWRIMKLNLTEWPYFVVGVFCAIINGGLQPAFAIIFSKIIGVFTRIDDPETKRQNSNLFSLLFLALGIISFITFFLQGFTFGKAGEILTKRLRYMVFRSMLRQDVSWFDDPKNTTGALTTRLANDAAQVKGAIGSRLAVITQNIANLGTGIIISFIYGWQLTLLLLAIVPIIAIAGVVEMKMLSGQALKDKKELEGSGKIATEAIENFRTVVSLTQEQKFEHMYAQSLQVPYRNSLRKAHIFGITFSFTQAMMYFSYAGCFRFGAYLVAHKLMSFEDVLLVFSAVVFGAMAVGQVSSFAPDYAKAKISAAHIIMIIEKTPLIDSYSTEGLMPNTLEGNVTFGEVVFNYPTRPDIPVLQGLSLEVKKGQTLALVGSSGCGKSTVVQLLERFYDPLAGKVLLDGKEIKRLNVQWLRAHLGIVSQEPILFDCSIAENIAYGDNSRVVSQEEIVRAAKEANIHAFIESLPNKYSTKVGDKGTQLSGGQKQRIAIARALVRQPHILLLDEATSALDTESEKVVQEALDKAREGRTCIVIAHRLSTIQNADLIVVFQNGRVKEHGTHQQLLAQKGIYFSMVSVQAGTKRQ
T3 sequence (P10145 whole entry): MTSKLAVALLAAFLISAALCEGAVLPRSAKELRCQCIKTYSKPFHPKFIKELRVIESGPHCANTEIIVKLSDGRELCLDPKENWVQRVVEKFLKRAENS
Sequence of Hepatocyte nuclear factor 4-alpha (P41235 whole entry, the tested form may be a part): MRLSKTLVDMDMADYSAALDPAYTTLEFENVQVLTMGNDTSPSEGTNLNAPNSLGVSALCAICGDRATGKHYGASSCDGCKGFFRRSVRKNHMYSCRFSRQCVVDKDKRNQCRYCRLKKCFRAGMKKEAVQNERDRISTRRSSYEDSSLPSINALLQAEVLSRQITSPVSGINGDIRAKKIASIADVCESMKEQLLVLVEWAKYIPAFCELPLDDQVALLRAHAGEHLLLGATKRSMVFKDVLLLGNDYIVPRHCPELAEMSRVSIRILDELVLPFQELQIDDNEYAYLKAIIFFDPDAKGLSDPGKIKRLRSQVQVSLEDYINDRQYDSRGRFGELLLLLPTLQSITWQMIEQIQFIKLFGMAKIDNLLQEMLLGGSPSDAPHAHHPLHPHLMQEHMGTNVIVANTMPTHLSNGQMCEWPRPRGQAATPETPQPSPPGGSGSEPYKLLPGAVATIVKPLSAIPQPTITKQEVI
Sequence of Beta Lactamase (Q932Y6 whole entry, the tested form may be a part): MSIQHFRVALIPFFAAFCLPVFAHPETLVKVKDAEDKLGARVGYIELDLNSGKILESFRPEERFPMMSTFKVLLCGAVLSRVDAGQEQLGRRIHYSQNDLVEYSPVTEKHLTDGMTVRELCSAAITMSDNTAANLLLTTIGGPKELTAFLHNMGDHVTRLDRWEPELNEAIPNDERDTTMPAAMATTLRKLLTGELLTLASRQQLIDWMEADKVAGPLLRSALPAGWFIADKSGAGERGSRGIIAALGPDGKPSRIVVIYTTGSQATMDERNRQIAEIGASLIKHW
Sequence of Beta-lactamase (Pseudomonas aeruginosa, UniProt Q79MP6) (Q79MP6 whole entry): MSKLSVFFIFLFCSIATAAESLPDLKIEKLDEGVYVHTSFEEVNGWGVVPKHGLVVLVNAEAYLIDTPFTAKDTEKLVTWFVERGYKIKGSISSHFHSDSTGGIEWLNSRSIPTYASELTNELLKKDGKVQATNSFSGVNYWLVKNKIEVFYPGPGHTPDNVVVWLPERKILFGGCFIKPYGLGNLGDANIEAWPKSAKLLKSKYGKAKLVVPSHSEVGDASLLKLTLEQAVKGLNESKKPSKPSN
Sequence of Beta-lactamase (Salmonella choleraesuis (strain SC-B67), UniProt Q5J463) (Q5J463 whole entry): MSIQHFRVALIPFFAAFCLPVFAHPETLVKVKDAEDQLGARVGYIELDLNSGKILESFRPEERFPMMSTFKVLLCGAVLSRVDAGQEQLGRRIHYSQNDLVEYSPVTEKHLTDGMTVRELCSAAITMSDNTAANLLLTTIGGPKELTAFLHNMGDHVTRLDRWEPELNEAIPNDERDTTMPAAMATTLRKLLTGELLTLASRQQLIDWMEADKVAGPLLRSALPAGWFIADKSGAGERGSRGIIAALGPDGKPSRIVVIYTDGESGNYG
Sequence of Low molecular weight phosphotyrosine protein phosphatase (P24666 whole entry): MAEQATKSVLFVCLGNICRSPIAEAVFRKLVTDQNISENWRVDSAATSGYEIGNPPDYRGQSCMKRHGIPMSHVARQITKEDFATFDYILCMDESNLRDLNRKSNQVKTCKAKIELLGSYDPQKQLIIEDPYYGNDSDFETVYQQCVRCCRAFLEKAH

SMILES: COC(=O)c1ccc(C(=O)OC)c(NC(=O)Cc2cccs2)c1
- IC50 [1]: 27.9 µM (inactive)

SMILES: Cc1c(C(=O)Nc2ccccc2)c2ccc(C(F)(F)F)cc2n1O
- IC50 [2]: 19.4 µM (inactive)
- IC50 [3]: 14.5 µM (inactive)

SMILES: O=C(NC1CCCCC1)C(c1ccc(-c2ccccc2)cc1)n1c(=O)c(-c2ccco2)nc2ccccc21 (stereo not drawn)
- IC50 [4]: 2.74 µM (active)

SMILES: O=C(c1ccoc1)N1CCN(c2cc(-c3ccc(F)cc3)nc3cc(-c4cccc(Cl)c4)nn23)CC1
- EC50 [5]: 2.75 µM (active)
- EC50 [6]: 5.57 µM (active)

SMILES: C[C@@H]1CN([C@H](C)CO)C(=O)c2cccc(NC(=O)c3nc4ccccc4s3)c2O[C@H]1CN(C)S(=O)(=O)c1ccccc1
- AC50 [7]: 39 µM (inactive)

SMILES: CCN1/C(=C/C=C/c2oc3ccc4ccccc4c3[n+]2CC)Oc2ccc3ccccc3c21
- IC50 [8]: > 59.6 µM (inactive)
- EC50 [9]: > 100 µM (not active)
- IC50 [10]: > 59.6 µM (inactive)
- EC50 [11]: 0.713 µM (active)

SMILES: COc1cccc(-c2ccc3ncnc(NCc4cc(C)cs4)c3c2)c1
- IC50 [12]: 5.37 µM (active)
- IC50 [13]: 12.4 µM (inactive)
